# Several values for one entry are separate records, joined by “and”; a condition that tells them apart may be missing. Equal entries are not always repeated. Toxic doses and inconclusive results are not listed. Peptide text beside a SMILES is read from it. * marks the point of attachment. Cbz = O=C(OCc1ccccc1)*
# Tested on: P388 leukemia ip, CD2F1 mice, survival T/C
# Assay: NCI In Vivo Anticancer Drug Screen. Data for tumor model P388 Leukemia (intraperitoneal) in CD2F1 (CDF1) mice
# Conditions: endpoint: median survival time, higher = longer survival
# How it was run: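 Mice carrying the transplanted tumor received test compound or vehicle. Survival was recorded in each group, and the value is the treated-group measurement divided by that of the vehicle-treated control group.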
# [1] = dose: 50.0 mg/kg/injection, schedule: Q01DX009 (ip), vehicle: saline with Tween-80
# [2] = dose: 100.0 mg/kg/injection, schedule: Q01DX009 (ip), vehicle: saline with Tween-80
# [3] = dose: 25.0 mg/kg/injection, schedule: Q04DX002 (ip), vehicle: saline with Tween-80
# [4] = dose: 50.0 mg/kg/injection, schedule: Q04DX002 (ip), vehicle: saline with Tween-80
# [5] = dose: 50.0 mg/kg/injection, schedule: Q04DX002 (ip), vehicle: saline
# [6] = dose: 100.0 mg/kg/injection, schedule: Q01DX005 (ip), vehicle: saline with Tween-80
# [7] = dose: 100.0 mg/kg/injection, schedule: Q04DX002 (ip), vehicle: saline with Tween-80
# [8] = dose: 100.0 mg/kg/injection, schedule: Q04DX002 (ip), vehicle: saline
# [9] = dose: 200.0 mg/kg/injection, schedule: Q01DX005 (ip), vehicle: saline with Tween-80
# [10] = dose: 200.0 mg/kg/injection, schedule: Q04DX002 (ip), vehicle: saline with Tween-80
# [11] = dose: 200.0 mg/kg/injection, schedule: Q04DX002 (ip), vehicle: saline
# [12] = dose: 400.0 mg/kg/injection, schedule: Q04DX002 (ip), vehicle: saline
# [13] = dose: 100.0 mg/kg/injection, schedule: Q04DX002 (ip), vehicle: Klucel (hydroxypropylcellulose) (HPC)
# [14] = dose: 200.0 mg/kg/injection, schedule: Q04DX002 (ip), vehicle: Klucel (hydroxypropylcellulose) (HPC)
# [15] = dose: 50.0 mg/kg/injection, schedule: Q01DX005 (ip), vehicle: saline with Tween-80
# [16] = dose: 200.0 mg/kg/injection, schedule: Q01DX009 (ip), vehicle: saline with Tween-80
# [17] = dose: 6.25 mg/kg/injection, schedule: Q01DX009 (ip), vehicle: Klucel (hydroxypropylcellulose) (HPC)
# [18] = dose: 12.5 mg/kg/injection, schedule: Q01DX009 (ip), vehicle: Klucel (hydroxypropylcellulose) (HPC)
# [19] = dose: 12.5 mg/kg/injection, schedule: Q01DX005 (ip), vehicle: Klucel (hydroxypropylcellulose) (HPC)
# [20] = dose: 25.0 mg/kg/injection, schedule: Q01DX005 (ip), vehicle: Klucel (hydroxypropylcellulose) (HPC)
structure (smiles),measurement,setting,value
COC(=O)C1=C(C)NC2(C)SC1C(C)C2C(=O)OC (centres undefined),T/C,"dose: 12.5 mg/kg/injection, schedule: Q01DX009 (ip), vehicle: saline with Tween-80",92 % of control and 93 % of control
same,T/C,"dose: 25.0 mg/kg/injection, schedule: Q01DX009 (ip), vehicle: saline with Tween-80",101 % of control and 93 % of control
same,T/C,[1],90 % of control and 97 % of control
same,T/C,[2],87 % of control and 90 % of control
[I][Pt+2][I].[NH-]C(c1ccccc1)C([NH-])c1ccccc1 (centres undefined),T/C,"dose: 12.5 mg/kg/injection, schedule: Q04DX002 (ip), vehicle: saline with Tween-80",102 % of control
same,T/C,[3],109 % of control and 111 % of control
same,T/C,[4],115 % of control
CCOC(=O)C(Nc1cc([N+](=O)[O-])ccc1C(=O)N1CCCCC1)(C(=O)OCC)N1CCCCC1,T/C,"dose: 60.0 mg/kg/injection, schedule: Q01DX005 (ip), vehicle: Klucel (hydroxypropylcellulose) (HPC)",96 % of control
same,T/C,"dose: 120.0 mg/kg/injection, schedule: Q01DX005 (ip), vehicle: Klucel (hydroxypropylcellulose) (HPC)",92 % of control
same,T/C,"dose: 240.0 mg/kg/injection, schedule: Q01DX005 (ip), vehicle: Klucel (hydroxypropylcellulose) (HPC)",89 % of control
O=C(Nc1nncs1)c1cccs1,T/C,[4],100 % of control
same,T/C,[5],113 % of control
same,T/C,[6],103 % of control
same,T/C,[7],104 % of control and 114 % of control
same,T/C,[8],106 % of control
same,T/C,[9],101 % of control
same,T/C,[10],114 % of control
same,T/C,[11],122 % of control
same,T/C,"dose: 400.0 mg/kg/injection, schedule: Q01DX005 (ip), vehicle: saline with Tween-80",96 % of control
same,T/C,"dose: 600.0 mg/kg/injection, schedule: Q04DX002 (ip), vehicle: saline with Tween-80",160 % of control
same,T/C,"dose: 800.0 mg/kg/injection, schedule: Q01DX005 (ip), vehicle: saline with Tween-80",104 % of control
O=C1NN2CCN=C2c2cnccc21,T/C,[8],98 % of control
same,T/C,[11],93 % of control
same,T/C,[12],92 % of control
O=C(NC(Cc1ccccc1)C(=O)O)c1cccnc1 (centres undefined),T/C,"dose: 25.0 mg/kg/injection, schedule: Q04DX002 (ip), vehicle: Klucel (hydroxypropylcellulose) (HPC)",100 % of control
same,T/C,"dose: 52.0 mg/kg/injection, schedule: Q04DX002 (ip), vehicle: Klucel (hydroxypropylcellulose) (HPC)",102 % of control
same,T/C,[13],96 % of control
same,T/C,[14],100 % of control
COC(=O)C12CCC(C(=O)OC)(CC1)n1c(=O)n(-c3ccccc3)c(=O)n12,T/C,[15],102 % of control
same,T/C,[6],102 % of control
same,T/C,[9],102 % of control
CSCCC(O)C(NC(=O)CCl)C(=O)O (centres undefined),T/C,"dose: 50.0 mg/kg/injection, schedule: Q01DX009 (ip), vehicle: saline",89 % of control and 96 % of control
same,T/C,"dose: 100.0 mg/kg/injection, schedule: Q01DX009 (ip), vehicle: saline",98 % of control and 102 % of control
same,T/C,"dose: 200.0 mg/kg/injection, schedule: Q01DX009 (ip), vehicle: saline",93 % of control and 95 % of control
O=c1[nH]c2ccccc2n1C1CCN(CC(O)C2COc3ccccc3O2)CC1 (centres undefined),T/C,[1],94 % of control
same,T/C,[2],106 % of control
same,T/C,[16],103 % of control
NS(=O)(=O)c1ccc(Nc2c3ccccc3nc3cc(Cl)ccc23)cc1,T/C,[17],98 % of control
same,T/C,[18],98 % of control
same,T/C,"dose: 25.0 mg/kg/injection, schedule: Q01DX009 (ip), vehicle: Klucel (hydroxypropylcellulose) (HPC)",90 % of control
same,T/C,"dose: 100.0 mg/kg/injection, schedule: Q01DX009 (ip), vehicle: Klucel (hydroxypropylcellulose) (HPC)",86 % of control
CC(=NC1CCCCC1)c1c(O)oc(C=Nc2ccccc2)c1O,T/C,[15],100 % of control
same,T/C,[6],105 % of control
same,T/C,[9],100 % of control
CCCCCCCCCCCCCOCC(=O)OC,T/C,[1],100 % of control
same,T/C,[2],104 % of control
same,T/C,[16],105 % of control
COc1ccc2c(C[N+](C)(C)CCC#N)cc(=O)oc2c1,T/C,[5],100 % of control
same,T/C,[8],100 % of control
same,T/C,[11],104 % of control
O=C1c2ccccc2C(=O)c2c(Nc3cc4c5c(ccc6c7ccc8c9c(cc(Nc%10cccc%11c%10C(=O)c%10ccccc%10C%11=O)c(c3c56)c97)-c3ccccc3C8=O)C(=O)c3ccccc3-4)cccc21,T/C,[19],106 % of control
same,T/C,[20],101 % of control
same,T/C,"dose: 50.0 mg/kg/injection, schedule: Q01DX005 (ip), vehicle: Klucel (hydroxypropylcellulose) (HPC)",98 % of control and 101 % of control
same,T/C,"dose: 100.0 mg/kg/injection, schedule: Q01DX005 (ip), vehicle: Klucel (hydroxypropylcellulose) (HPC)",96 % of control
CSCCC(NC(=O)C(Cc1ccccc1)NC(=O)OCc1ccccc1)C(=O)O (stereo not drawn) (Cbz-Phe-Met-OH; configuration not given here),T/C,[15],104 % of control
same,T/C,[6],105 % of control
same,T/C,[9],97 % of control
CCCCC(CCCCCC(CCCC)NCc1ccc2c(c1)OCO2)NCc1ccc2c(c1)OCO2 (centres undefined),T/C,"dose: 3.12 mg/kg/injection, schedule: Q01DX009 (ip), vehicle: Klucel (hydroxypropylcellulose) (HPC)",102 % of control
same,T/C,[17],97 % of control
same,T/C,[18],100 % of control and 112 % of control
CCCCCCCCCCCCCCCc1cccc(OC)c1C(=O)OC,T/C,"dose: 20.0 mg/kg/injection, schedule: Q01DX009 (ip), vehicle: saline",109 % of control
same,T/C,"dose: 40.0 mg/kg/injection, schedule: Q01DX009 (ip), vehicle: saline",106 % of control
same,T/C,"dose: 80.0 mg/kg/injection, schedule: Q01DX009 (ip), vehicle: saline",104 % of control
C=Cc1nc(=O)[nH]c(=O)[nH]1,T/C,[13],97 % of control
same,T/C,[8],101 % of control
same,T/C,[14],91 % of control
same,T/C,[11],108 % of control
same,T/C,"dose: 400.0 mg/kg/injection, schedule: Q04DX002 (ip), vehicle: Klucel (hydroxypropylcellulose) (HPC)",97 % of control
same,T/C,[12],98 % of control
Cn1ccc2cc(C3CCCc4c3[nH]c3ccccc43)c(OCc3ccccc3)cc21 (centres undefined),T/C,"dose: 6.25 mg/kg/injection, schedule: Q01DX005 (ip), vehicle: Klucel (hydroxypropylcellulose) (HPC)",99 % of control
same,T/C,[19],97 % of control
same,T/C,[20],97 % of control
C#CCNCCCn1c(=O)nc2n(-c3ccccc3)c3ccccc3nc-2c1=O,T/C,"dose: 25.0 mg/kg/injection, schedule: Q04DX003 (ip), vehicle: Klucel (hydroxypropylcellulose) (HPC)",110 % of control
same,T/C,"dose: 50.0 mg/kg/injection, schedule: Q04DX003 (ip), vehicle: Klucel (hydroxypropylcellulose) (HPC)",106 % of control
same,T/C,"dose: 100.0 mg/kg/injection, schedule: Q04DX003 (ip), vehicle: Klucel (hydroxypropylcellulose) (HPC)",100 % of control and 107 % of control
CCc1nc(N)nc(N)c1-c1ccc(N)cc1,T/C,"dose: 12.5 mg/kg/injection, schedule: Q01DX005 (ip), vehicle: saline with Tween-80",104 % of control
same,T/C,"dose: 25.0 mg/kg/injection, schedule: Q01DX005 (ip), vehicle: saline with Tween-80",100 % of control
same,T/C,[15],98 % of control and 99 % of control
CC(O)C(N)C(=O)NC(Cc1ccc(O)cc1)C(=O)NC(CCCCN)C(=O)O (stereo not drawn) (H-Thr-Tyr-Lys-OH; configuration not given here),T/C,"dose: 50.0 mg/kg/injection, schedule: Q01DX005 (ip), vehicle: saline",101 % of control
same,T/C,"dose: 100.0 mg/kg/injection, schedule: Q01DX005 (ip), vehicle: saline",101 % of control
same,T/C,"dose: 200.0 mg/kg/injection, schedule: Q01DX005 (ip), vehicle: saline",106 % of control
CS(=O)(=O)N1C2CC3CCCCC3CC21 (centres undefined),T/C,[3],99 % of control
same,T/C,[4],99 % of control
same,T/C,[7],105 % of control and 110 % of control
same,T/C,[10],112 % of control
same,T/C,"dose: 400.0 mg/kg/injection, schedule: Q04DX002 (ip), vehicle: saline with Tween-80",112 % of control
OCC(O)C(O)C(O)C(O)c1nnc2n[nH]c(=S)n2n1 (centres undefined),T/C,"dose: 25.0 mg/kg/injection, schedule: Q01DX001 (ip), vehicle: Klucel (hydroxypropylcellulose) (HPC)",100 % of control
same,T/C,"dose: 50.0 mg/kg/injection, schedule: Q01DX001 (ip), vehicle: Klucel (hydroxypropylcellulose) (HPC)",98 % of control
same,T/C,"dose: 100.0 mg/kg/injection, schedule: Q01DX001 (ip), vehicle: Klucel (hydroxypropylcellulose) (HPC)",100 % of control

# Reference: PubChem BioAssay AID330 (DTP/NCI, 2004)
